Data reported in patent US7232842B2, “Kinase inhibitors and associated pharmaceutical compositions and methods of use” (Board of Trustees of the LeLand Stanford Junior University, priority 2003, dated 2007).

How the values were obtained:
[1] = system: Protein kinase C, as a mixture of isozymes; experiment: PKC activity assay, 32P transfer from [γ-32P]ATP to histone III-S; assay type: biochemical, rat; conditions: for inhibition at 10 μM: 10 μM inhibitor; for IC50: histone III-S substrate, 15 min, three trials per concentration
Excerpt: In practicing various aspects of the present invention, compounds in accordance with the invention can be tested for a biological activity of interest using any assay protocol that is predictive of activity in vivo. For example, a variety of convenient assay protocols are available that are generally predictive of PKC inhibitory activity in vivo. In one approach, PKC inhibitory activity can be assessed using the PKC assay described in Example 9 (also described by Toullec et al. (1991) J. Biol. Chem. 266:15771). In that assay, the PKC was derived, as a mixture of isozymes, from rat brains, and activity was determined by incorporation of ^32P radiolabeled phosphate, derived from [γ-^32P]-ATP, onto a PKC substrate. Another assay for assessing PKC inhibitory activity is described in Example 10; see also U.S. Patent Application Publication No. 2002/0137789 A1 to Wender et al. In this assay, Ki values are determined for potential inhibitors based on competition with radiolabeled phorbol 12,13-dibutyrate for binding to a mixture of PKC isozymes.
Materials used: Phosphatidyl serine and 1,2 sn-dioleylglycerol were obtained from Serdary Research Laboratories. Protein kinase C, as a mixture of isozymes, was obtained in isolated and purified form from Prof. Daria Mochley-Rosen and Tamar Lion (Stanford University, Department of Molecular Pharmacology).
PKC activity was assayed by measuring ^32Pi transferred from [γ-^32P]ATP to histone III-S (Sigma). The reaction mixture (100 μL) included 20 mM Tris-HCl (pH 7.5) (30 μL), 10 mM CaCl2 in 20 mM Tris-HCl (10 μL), a sonicated suspension of 2.4 mg/mL phosphatidylserine and 80 μg/mL 1,2-diacylglycerol in 20 mM Tris-HCl (10 μL), a PKC preparation of 4.5 mg/mL total PKC with 5–9 U activity/mL relative to histone III-S (10 μL), a solution of 0.35 mg/mL histone III-S (Sigma) in 20 mM Tris-HCl (10 μL), and a solution of the inhibitor at various concentrations in 20 mM Tris-HCl containing <1% DMSO (10 μL). The reaction was started by the addition of a solution containing 27 μL of 3.75 mM ATP (non-radiolabeled), 100 μL 1.0 M MgCl2, and 1.3 μL of […] [γ-^32P]ATP, and 872 μL of 20 mM Tris-HCl (pH 7.5) (20 μL). After 15 min, the reaction was stopped by the addition of 30 μL of 200 mM EDTA and 200 mM ATP (non-radiolabeled). The reaction mixture was adsorbed onto phosphocellulose paper squares (Whatman P81), and allowed to dry for 5 min. The phosphocellulose paper squares were then washed with EtOH (3×1 min). The total protein phosphorylation was quantitated by scintillation counting. Counts per minute were averaged among three trials at each concentration.

five of the PKC isoforms = conditions: cited from earlier work
PKC = conditions: Tamaoki et al. (1986); cited from earlier work

inhibition at 10 μM [1] | IC50 [1] | melting point | SMILES | IC50 (five of the PKC isoforms) | IC50 (PKC)
^A36% inhibition at 10 μM | > 10 µM | 309 to 310 °C (dec.) | CN1C(=O)c2c3c(c4[nH]c5ccccc5c4c2C1=O)CCC(=O)CC3 [Compound 10] |  | 
 | 3.6 µM |  | O=C1CCc2c3c(c4c([nH]c5ccccc54)c2CC1)C(=O)NC3=O [Compound 11] |  | 
 | 4.5 µM |  | O=C1NC(=O)c2c1c1c(c3[nH]c4ccccc4c23)CCC(O)CC1 (stereo not drawn) [Compound 12] |  | 
^B40% inhibition at 10 μM | > 10 µM |  | CN1C(=O)c2c3c(c4c(c2C1=O)c1ccccc1n4CCCNC(=O)OC(C)(C)C)CCC(O)CC3 (stereo not drawn) [Compound 14] |  | 
 |  |  | CN[C@H]1CC2(C)OC(C)([C@H]1OC)n1c3ccccc3c3c4c(c5c6ccccc6n2c5c31)C(=O)NC4 (stereo partly drawn) [Staurosporin] | < 0.01 µM | 0.0027 µM
